Reference: patent US7638554B2, “Flavanoids as chemotherapeutic, chemopreventive, and antiangiogenic agents” (SRI International, priority 2002, dated 2009)
Like-named read-outs stand apart in the source and are kept apart here.

Tests used:
[1] = system: colon cancer cell line KM12; test: Growth inhibition, sulforhodamine-based protein determination, KM12; type: cell-based; details: Homo sapiens, KM12, 144 h; continuous exposure six days
Method: (§1) The novel compound SR 13179 was assayed for its ability to inhibit growth in several cancer cell lines. The cell lines studied included breast cancer cell line MCF-7 (ER+); prostate cancer cell lines LNCaP, PC3, and DU145; lung cancer cell line A427; ovarian cancer cell lines IGROV1, OVCAR-3, OVCAR-4, OVCAR-5, OVCAR-8, and SK-OV-3; and colon cancer cell lines COLO 205, HCC-2998, HCT-116, HCT-15, HT29, KM12, AND SW-620.
(§2) The growth assays for the breast cancer cell lines were conducted according to the method of Example 16. For the other cell lines, each assay was conducted with continuous exposure to the test compound at four log concentrations for six days, using a sulforhodamine-based protein determination to measure growth inhibition.

[2] = system: HUVEC cells; test: Apoptosis in HUVEC cells, TUNEL assay; type: cell-based, human
Method: The antiproliferative mechanism was investigated by assaying for apoptosis using the method of Gavrieli et al. using a Promega (Madison, Wis.) apoptosis detection kit (Gavrieli et al. (1992) J Cell. Biol. 119:493-501). Briefly, HUVEC cells were treated with four log concentrations of SR 13179 (1 nM, 10 nM, 100 nM, and 1 μM) and fixed for terminal deoxyribonucleotide transferase-mediated dUTP nick end labeling (TUNEL) assay at 3 h and 6 h. The apoptotic cells were labeled with fluorescent dUTP at DNA strand breaks, and were counterstained with Hoechst 33258 to visualize nuclear morphology. Even at concentrations as low as 10 nM at 3 h, apoptosis was clearly evident as pyknotic nuclei. […] At six hours, there appeared to be massive apoptosis at higher concentrations of SR 13179, such that the cells were detached and lost during the washing steps. It thus appears that the antiproliferative effect of SR 13179 on vascular endothelial cells is mediated by apoptosis.

[3] = system: colon cancer cell line HCT-116; test: Growth inhibition, sulforhodamine-based protein determination, HCT-116; type: cell-based; details: Homo sapiens, HCT-116, 144 h; continuous exposure six days
Method: as §1, §2

[4] = system: TIMP-2; test: Western blotting of TIMP-2 protein expression, MCF-10-CA1a cells; type: cell-based, human
Excerpt: Western Blotting. Proteins were separated by gel electrophoresis using 4-12% pre-cast SDS-polyacrylamide gels (Invitrogen, Carlsbad, Calif.) and then electrophoretically transferred onto Hybond™-P membrane (Amersham Biosciences, Piscataway, N.J.). Blots were probed with specific antibodies (Santa Cruz Biotechnology, Inc). The ECL Plus Western Blotting Detection System of Amersham Biosciences (Piscataway, N.J.) and the procedure recommended by the manufacturer was used for the detection of antigens. Protein bands were quantified by analyzing the images obtained using an Alphaimager™ S-3400 (Alpha Innotech Corp., San Leandro, Calif.).
The effects of SR 13179 on the protein expression of TIMP-1, TIMP-2, and membrane-type 1 MMP (MT1-MMP) were studied. SR13179 induced the protein expression of TIMP-2 in a dose- and time-dependent manner. MCF-10-CA1a cells were treated with SR 13179 at 1, 3, or 5 μM concentrations for 48 h, or, alternatively, with […] SR 13179 for 8, 24, or 48 h. Cells were lysed and subjected to Western blotting.

[5] = system: MCF-7 human breast cancer xenografts; test: MCF-7 human breast cancer xenografts in nude mice, i.p. administration; type: in vivo
Method: To evaluate the in vivo activity of novel compound SR 13179 against breast cancer, the compound was administered to female BALB/c nude mice that had been implanted with breast cancer cells. In this experiment, MCF-7 human breast cancer cells (2.5×10^6 cells) were implanted subcutaneously in both flanks of each mouse. Two days after cell inoculation, one estradiol pellet (10 μg/pellet) was implanted into each mouse by subcutaneous implantation. When tumor volumes reached 100 mm^3 (Day 0), SR 13179 was administered at a dose of 12.5 mg/kg, 25 mg/kg and 50 mg/kg intraperitoneally (i.p.) once a day, as a suspension in 0.5% hydroxypropyl cellulose. Body weights and tumor volumes were measured twice a week for 14 days. The tumor volume was expressed as % of initial tumor size which was designated as 100% on Day 0.

[6] = system: MCF-7 human breast carcinoma cells; test: Cell cycle analysis in MCF-7 cells; type: cell-based; details: 1 μM, 24 h
[7] = system: MCF-7 (ER+) breast cancer cell line; test: Growth inhibition assay, MTT, MCF-7 breast cancer cells; type: cell-based, human; details: Homo sapiens
Method: Compounds of the invention were tested for their ability to inhibit growth in two breast cancer cell lines, MCF-7 (ER+) and MDA-MB-231 (ER−).
The growth inhibition assays were conducted using routine methods. Briefly, the cells were seeded in 24-well plates at a density of 2000 cells per well in 200 μL of […] growth medium. To each well was added 10 μL of DMSO containing the dissolved test compound; final DMSO concentration in each well was not more than 0.5%. Each test compound was assayed at concentrations of 0.4, 2, 10, and 50 μM. The plates were incubated for eight days, with the media and test solutions replaced every third day. On Day 8, the viable cells were measured by the MTT assay, as described in Mosmann et al. (1983), “Rapid Colorimetric Assay for Cellular Growth and Survival: Application to Proliferation and Cytotoxicity,” J. Immunol. Method. 65:55-63. The optical density at 575 nm of each test well was measured and compared to that for control wells, and the data used to calculate the percentage of growth inhibition at different concentrations. The IC50 value (the concentration of growth inhibitor that results in 50% growth inhibition of the cells in culture relative to control cells not exposed to any growth inhibitor) was determined by plotting dose-response curves.
The calculated IC50 values are set forth in Table 1, with the results representing the average of at least two experiments conducted for each compound at each of the four concentrations.

[8] = biological target: T1, p38 MAPK (Homo sapiens, UniProt Q16539); test: Inhibition of p38 MAPK in MCF-7 cells; type: cell-based; details: MCF-7 human breast cancer cell line
T1 construct: endogenous in cells; host or cells: MCF-7 human breast cancer cells
T1 sequence (Q16539 whole entry): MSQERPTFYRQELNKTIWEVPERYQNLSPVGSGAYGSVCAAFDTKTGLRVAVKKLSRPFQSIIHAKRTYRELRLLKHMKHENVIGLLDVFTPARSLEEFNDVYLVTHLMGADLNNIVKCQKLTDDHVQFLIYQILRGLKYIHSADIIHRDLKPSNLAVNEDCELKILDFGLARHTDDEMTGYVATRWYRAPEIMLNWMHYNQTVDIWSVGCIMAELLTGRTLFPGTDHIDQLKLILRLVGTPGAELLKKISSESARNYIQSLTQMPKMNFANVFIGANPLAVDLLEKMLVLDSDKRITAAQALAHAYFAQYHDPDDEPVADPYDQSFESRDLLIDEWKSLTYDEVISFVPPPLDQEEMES

[9] = 12.5, 25 and 50 mg/kg i.p. once a day

COc1cc(C2CC(O)c3ccc4ccccc4c3O2)cc(OC)c1OC (stereo not shown) [SR 13179, 2-(3,4,5-trimethoxyphenyl)-3,4-dihydro-2H-benzo[h]chromen-4-ol]
IC50 [1]: 168 nM | Percent apoptosis ([2]; 1 nM, 3 h): 10.3% | Percent apoptosis ([2]; 1 nM, 6 h): 8.5% | Percent apoptosis ([2]; 10 nM, 3 h): 10.3% | Percent apoptosis ([2]; 10 nM, 6 h): cells detached | Percent apoptosis ([2]; 100 nM, 3 h): 11.9% | Percent apoptosis ([2]; 100 nM, 6 h): cells detached | Percent apoptosis ([2]; 1 μM, 3 h): 16.7% | Percent apoptosis ([2]; 1 μM, 6 h): cells detached | increase in the percentage of detected apoptotic cells ([2]; three hours after exposure, versus control): two to three fold increase | IC50 [3]: 310 nM | Level of TIMP-2 Protein ([4]; 1 μM, 48 h): 6.8 | Level of TIMP-2 Protein ([4]; 3 μM, 48 h): 14.6 | Level of TIMP-2 Protein ([4]; 5 μM, 48 h): 16.2 | Level of TIMP-2 Protein ([4]; 8 h, 5 mM SR 13179): 7.9 | Level of TIMP-2 Protein ([4]; 24 h, 5 mM SR 13179): 14.5 | Level of TIMP-2 Protein ([4]; 48 h, 5 mM SR 13179): 15.9 | tumor growth ([5]; 12.5 mg/kg/day i.p., 14 days): complete suppression of tumor growth | tumor size compared to the size at Day 0 ([5]; 50 mg/kg/day i.p., 14 days): slight regression in tumor size | body weights of the treated mice [5, 9]: unaffected | overt toxicity [5, 9]: no overt toxicity was observed | hypodiploid (sub G1) fraction compared with untreated control [6]: nearly three-fold increase | IC50 ([7]; MCF7, 192 h, MTT assay, eight days, average of at least two experiments, read-out: GROWTH INHIBITION (IC50) MCF-7 (ER+)): 1410 nM | IC50 ([7]; MCF7, Table 2, method of Example 16, read-out: IC50, growth inhibition, MCF-7 (ER+)): 1140 nM | p38 MAPK [8]: inhibited
